Experiments:
Assay type in all cases: cell-based
[1] = system: COVID-19 virus (COVID19 recombinant adenovirus); test: COVID19 antibody-antigen polymerization reaction on combination treatment with ECCA A (Cyto X cell viability)
[2] = system: recombinant adenovirus (GFP tagging); test: antiviral activity against recombinant adenovirus (GFP fluorescence intensity) in HEK293A cells; details: for inhibition at 50 µM: unidentified adenovirus, HEK293-A, 72 h, read-out: virus inhibitory activity
Procedure: (§1) After dispensing HEK293A cells at 10,000 cells/well on a 96-well plate and stabilizing for 24 hours, the recombinant adenovirus (GFP tagging, MOI=0.5) prepared in Example and 18 compounds listed in Table 1 below (50 μM)) were treated and incubated for 24, 48 and 72 hours, the GFP fluorescence intensity (Excitation=485 nm, Emission=528 nm) was observed.

[3] = system: Herpes simplex virus (HSV); test: antiviral activity against herpes simplex virus (HSV), same manner as the adenovirus test; details: 50 μM, after 24 hours, 48 hours and 72 hours (FIG. 14)
Procedure: as §1
The experiment was performed in the same manner as in the previous experiment, except that the virus type was changed to HSV and the antiviral activity was examined.

HEK293A cells = test: cell death / cytotoxicity in compound-treated HEK293A cells; details: 50 μM compound, after 72 hours of treatment

SMILES | antigen-antibody polymerization reaction [1] | binding to the antigen fusion protein [1] | antiviral activity on adenovirus, compared among C2, C6, C8 and C10 ([2]; 50 μM, after 24 hours, 48 hours and 72 hours (FIG. 13)) | inhibition at 50 µM [2] [%] | antiviral activity on HSV [3] | cell death (HEK293A cells) [%] | virus inhibitory activity (in words) ([2]; 50 μM compound, HEK293A cells, recombinant adenovirus MOI=0.5)
C=C(C)[C@@H]1CC[C@]2(C(=O)O)CC[C@]3(C)[C@H](CC[C@@H]4[C@@]5(C)CC[C@H](O)C(C)(C)[C@@H]5CC[C@]43C)[C@@H]12 [Compound C10, ECCA A] | effective antigen-antibody polymerization reaction was confirmed | excellent | most excellent | ≥ 50 | most excellent | – | –
C=C(C)[C@@H]1CC[C@]2(C(=O)O)CC[C@]3(C)[C@H](CC[C@@H]4[C@@]5(C)[C@@H](C(=O)O)[C@H](O)C(C)(C)[C@@H]5CC[C@]43C)[C@@H]12 [Compound C2, Ceanothic acid] | – | – | – | ≥ 50 | – | – | –
C=C(C)[C@@H]1CC[C@]2(C(=O)O)CC[C@]3(C)[C@H](CC[C@@H]4[C@@]5(C)C[C@@H](OC(=O)/C=C/c6ccc(O)cc6)[C@H](O)C(C)(C)[C@@H]5CC[C@]43C)[C@@H]12 [Compound C4, 2-O-E-p-coumaroyl alphitolic acid] | – | – | – | – | – | 100 | excellent virus inhibitory activity
